Laboratory results published in ChEMBL document CHEMBL1147802, “Diarylacetylene piperidinyl amides as novel anxiolytics” (Bioorg Med Chem Lett, 2006).

Key:
[1] = Stability in human liver microsomes after 60 min; assay type: ADME, Microsome; settings: read-out: Stability
Mus musculus [2] = test: Anxiolytic activity in mouse after oral administration by EPM test; assay type: functional; settings: read-out: MED
Substance-P receptor [3] = target: T1, Substance-P receptor (Homo sapiens, UniProt P25103); test: Inhibition of human NK1 receptor expressed in U373MG cells at 10 uM; assay type: cell-based; settings: U-373MG ATCC
T1 sequence (P25103 whole entry): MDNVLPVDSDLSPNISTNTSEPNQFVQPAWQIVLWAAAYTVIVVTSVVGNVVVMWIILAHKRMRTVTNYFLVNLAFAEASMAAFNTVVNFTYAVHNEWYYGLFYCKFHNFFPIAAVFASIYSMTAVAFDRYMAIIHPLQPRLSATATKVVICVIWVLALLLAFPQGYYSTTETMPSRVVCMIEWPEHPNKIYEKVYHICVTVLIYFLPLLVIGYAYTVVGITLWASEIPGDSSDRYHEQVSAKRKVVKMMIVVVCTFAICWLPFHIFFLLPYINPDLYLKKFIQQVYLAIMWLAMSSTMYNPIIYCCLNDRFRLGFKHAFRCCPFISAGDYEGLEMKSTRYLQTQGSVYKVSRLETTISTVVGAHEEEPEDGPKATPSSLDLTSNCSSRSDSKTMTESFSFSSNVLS

Mus musculus [4] = test: Anxiolytic activity in orally dosed mouse assessed as reversal of DOI-induced head shake; assay type: functional; settings: po, read-out: MED
[5] = Bioavailability in cynomolgus monkey; assay type: ADME, organism-based, Macaca fascicularis; settings: in vivo
[6] = Half life in rat at 15 mg/kg, po; assay type: ADME, organism-based; set-up: dose 15 mg/kg, route oral; settings: in vivo
[7] = Oral bioavailability in rat at 15 mg/kg, po; assay type: ADME, organism-based; settings: in vivo
[8] = Stability in rat liver microsomes after 60 min; assay type: ADME, Microsome; settings: read-out: Stability
[9] = Half life in cynomolgus monkey; assay type: ADME, organism-based, Macaca fascicularis; settings: in vivo
[10] = target: T2, Substance-K receptor (Homo sapiens) (UniProt P21452); test: Inhibition of human NK2 receptor expressed in CHO cells at 10 uM; assay type: cell-based
T2 sequence (whole entry): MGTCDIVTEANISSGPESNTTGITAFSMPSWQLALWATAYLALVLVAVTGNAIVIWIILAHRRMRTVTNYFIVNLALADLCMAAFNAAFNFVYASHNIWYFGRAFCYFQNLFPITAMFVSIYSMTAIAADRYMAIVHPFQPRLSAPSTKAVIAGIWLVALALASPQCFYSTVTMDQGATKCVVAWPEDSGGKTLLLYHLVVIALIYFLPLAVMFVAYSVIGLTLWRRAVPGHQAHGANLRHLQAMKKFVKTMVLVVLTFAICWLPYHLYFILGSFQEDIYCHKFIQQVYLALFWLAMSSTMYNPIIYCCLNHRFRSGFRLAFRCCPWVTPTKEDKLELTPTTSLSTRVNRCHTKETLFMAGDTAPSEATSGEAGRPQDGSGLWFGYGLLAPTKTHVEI

Substance-K receptor = target: T3, Substance-K receptor (Homo sapiens, UniProt P21452); test: Inhibition of human NK2 receptor expressed in CHO cells; assay type: cell-based
T3 sequence (P21452 whole entry): T2 sequence (whole entry)

Substance-P receptor [11] = target: T1, Substance-P receptor; test: Inhibition of human NK1 receptor expressed in U373MG cells; assay type: cell-based, U-373MG ATCC
[12] = Stability in rat liver microsomes after 90 min; assay type: ADME, Microsome; settings: read-out: Stability
[13] = Oral bioavailability in rat at 3 mg/kg, po; assay type: ADME, organism-based; settings: in vivo
[14] = Oral bioavailability in rat at 10 mg/kg, po; assay type: ADME, organism-based; settings: in vivo
[15] = Stability in human liver microsomes after 90 min; assay type: ADME, Microsome; settings: read-out: Stability
Homo sapiens = organism: Homo sapiens; test: Inhibition of GABA transporter at 10 uM
[16] = Half life in rat at 40 mg/kg, po; assay type: ADME, organism-based; set-up: dose 40 mg/kg, route oral; settings: in vivo
[17] = Oral bioavailability in rat at 40 mg/kg, po; assay type: ADME, organism-based; settings: in vivo

| SMILES | minimal effective dose (Mus musculus [2]) | inhibition (Substance-P receptor [3]) | minimal effective dose (Mus musculus [4]) | inhibition [10] | IC50 (Substance-K receptor) | IC50 (Substance-P receptor [11]) | remaining at 1.5 h [12] | remaining at 1.5 h [15] | other results |
| --- | --- | --- | --- | --- | --- | --- | --- | --- | --- |
| O=C(CC1CCN(C(=O)c2cccc(C#Cc3ccccn3)c2)CC1)Nc1ccc(F)cc1F | 1 mg/kg | 16% | 0.1 mg/kg | 8% |  |  |  |  | remaining at 1 h [1]: 15%; bioavailability [5]: 38%; half-life [6]: 162 min; bioavailability [7]: 7%; remaining at 1 h [8]: 0.1%; half-life [9]: 186 min |
| O=C(CC1CCN(C(=O)c2cccc(C#Cc3ccccc3)c2)CC1)Nc1ccccc1 |  | 28% |  | 7% |  |  |  |  |  |
| O=C(CC1CCN(C(=O)c2cccc(C#Cc3ccccn3)c2)CC1)Nc1ccccc1F |  | 96% |  | 97% | 550 nM | 640 nM |  |  |  |
| O=C(CC1CCN(C(=O)c2cccc(C#Cc3ccccn3)c2)CC1)Nc1ccc(O)cc1 | 3 mg/kg | 18% | 20 mg/kg |  |  |  | 97% | 80% | bioavailability [13]: < 2%; bioavailability [14]: < 2% |
| O=C(CC1CCN(C(=O)c2cccc(C#Cc3ccccn3)c2)CC1)Nc1ccccc1 | 1 mg/kg | 37% | 20 mg/kg | 11% |  |  | 63% | 35% | inhibition (Homo sapiens): 60%; half-life [16]: 186 min; bioavailability [17]: 65% |
| O=C(CC1CCN(C(=O)c2cccc(C#Cc3ccccn3)c2)CC1)Nc1ccc(F)cc1 |  | 96% |  | 96% | 1000 nM | 1000 nM |  |  |  |
